The results in this text go back to US20230203005A1, “COMPOUNDS WITH TUBULIN POLYMERISATION INHIBITORY ACTIVITY AND IMMUNOMODULATORY PROPERTIES” (UNIVERSITE PARIS-SACLAY, priority 2018, published 2023).

In one test the test system is HUVECs. Briefly: Formation of vascular tubes on Matrigel. The format is cell-based, human. As to conditions: 5 hours, 10 nM (non-toxic). The protocol:
To determine whether compound 1 disrupts the spatial organisation of endothelial cells into structures similar to vascular capillaries, human endothelial cells (HUVECs) were treated immediately after culturing on Matrigel™ or after 24 hours of culture, in order to allow them to form vascular tubes.
The HUVECs (human endothelial cells derived from the umbilical cord) were cultivated in EGM2 culture medium (Promocell, Germany). The cells were maintained in culture at 37° C. in a humid atmosphere containing 5% CO2.
To evaluate the anti-vascular activity of compound 1, the HUVECs were cultured in 96 well culture plates covered beforehand with an extract of extracellular matrix (Matrigel™, BD Biosciences, Le Pont-de-Claix, France) in which they spontaneously form capillary tubes.
Firstly, we measured the capacity of compound 1 to inhibit the formation of the capillary network. Matrigel™ is deposited in the 96 well culture plates at a rate of 70 μL/well and left to incubate at 37° C. for 45 minutes to enable its polymerisation. 20,000 HUVECs are seeded in each of the wells containing Matrigel™ in the absence or in the presence of different concentrations of compound 1, at a rate of 3 wells per concentration. After 2 hours, 3 hours and 5 hours of incubation at 37° C., the cells are observed and photographed using a TE2000 type optical microscope (Nikon, France), equipped with a camera. […]

Test [1] deals with K562R Doxorubicin resistant chronic myeloid leukaemia. Kind of test: In vitro cytotoxicity (CellTiter-Blue), K562R. The test is classed as cell-based. The conditions noted are these: Homo sapiens, K-562R; 72 hours of incubation. The protocol:
(§1) The biological activity of the compounds of the invention were studied in vitro on […] human cancer cell lines of different tissular origins: HCT116 colorectal carcinoma; A2780R Cisplatin resistant ovary cancer; MiaPaca2 pancreatic cancer; K562R Doxorubicin resistant chronic myeloid leukaemia; JIM-T1 Trastuzumab-DM1 resistant mammal carcinoma; and HepG2 hepatic carcinoma. The cells selected for this study were incubated at 37° C. in the presence of one of the compounds added to the culture medium at different concentrations. The series of experiments carried out made it possible to determine the degree of toxicity of the compound tested, its effect on cell cycle progression as well as its capacity to induce cell death by apoptosis.
(§2) All the cell lines were maintained in culture at 37° C. in a humid atmosphere containing 5% CO2. Cell viability was evaluated using the reagent CellTiter-Blue™ (Promega, Wis., USA) while respecting the manufacturer's instructions. The cells were seeded in 96 well culture plates at a rate of 5000 cells per […] in 50 μl of culture medium. […] After 2 hours of incubation, the fluorescence emitted was measured at 590 nm after excitation at 560 nm by means of a Victor type fluorescence reader (Perkin-Elmer, USA).

The test system of a further test is tubulin. Briefly: Tubulin polymerisation inhibition (fluorescence assembly assay). The format is biochemical, ewe. The conditions noted are these: inhibition of 50% of the maximum assembly rate; tubulin 10 μM. The method, then:
The tubulin is purified from ewe brains according to the Shelanski method by 2 assembly-disassembly cycles. The mother solution (15-20 mg/mL), stored at −196° C., is thawed and diluted in the assembly buffer (0.1 M MES, 0.5 mM MgCl2, 1 mM EGTA, and 1 mM GTP, pH 6.6) to have a final concentration of 10 μM. Tubulin assembly is monitored by fluorescence on 96 well plates according to the method of Barron et al. (Anal. Biochem. 315 (2003) 49-56). To the solution of tubulin (10 μM, 100 μL per well) is added the inhibitor (DMSO, 1 μL) and the solution is incubated for 45 min at room temperature. GTP (1 mM final) is next added, the solution is rapidly mixed and the fluorescence (λex=350 nm, λem=440 nm) is measured on a Wallac Victor fluorimeter (Perkin Elmer). The determination of the inhibition of 50% of the maximum assembly rate (IC50) is carried out in duplicate or triplicate over 10 concentrations surrounding the IC50.

In test [2] the test system is HCT116 colorectal carcinoma. Kind of test: In vitro cytotoxicity (CellTiter-Blue), HCT116. The test is classed as cell-based. The conditions noted are these: Homo sapiens, HCT-116; 72 hours of incubation. The protocol: as §1
All the cell lines were maintained in culture at 37° C. in a humid atmosphere containing 5% CO2. Cell viability was evaluated using the reagent CellTiter-Blue™ (Promega, Wis., USA) while respecting the manufacturer's instructions. The cells were seeded in 96 well culture plates at a rate of 5000 cells per […] in 50 μl of culture medium. After 24 hours of culture, the compounds of generic formula (I) dissolved in DMSO were added individually to each of the wells at a rate of 50 μl per well. All the compounds were tested in triplicate for each concentration defined and each experiment was repeated 3 times. After 72 hours of incubation, 20 μL of resazurin were added to each well. After 2 hours of incubation, the fluorescence emitted was measured at 590 nm after excitation at 560 nm by means of a Victor type fluorescence reader (Perkin-Elmer, USA).

The test system of test [3] is HCT116 cells. Kind of test: Analysis of the cell cycle by flow cytometry. The test is classed as cell-based, human. The conditions noted are these: HCT116, 24 hours of exposure, 5 nM. The protocol: The HCT116 cells are seeded in 6 well culture plates at a rate of 300,000 cells per well in their respective media described above. After 24 hours of culture, compound 1 was added to each of the wells at different concentrations. After 24 hours of incubation, the cells are collected individually in 15 mL tubes then centrifuged. The cells are next washed twice in cold PBS then re-suspended in 1 mL of PBS, fixed by adding 2 mL of cold absolute ethanol and placed at 4° C. for 1 hour. After centrifugation, the cells are washed twice in PBS then the cell pellet is taken up in 100 μL of 1%. Triton X100. After 30 minutes of incubation at room temperature, 50 μL of RNase A boiled beforehand (1 mg/mL) and 500 μL of propidium iodide (50 μg/mL) are added to each tube and incubated in darkness at room temperature for 30 minutes. The distribution of the number of cells in each of the phases of the cell cycle is next determined by flow cytometry using a FC500 type cytometer (Beckman-Coulter, France).

The test system of test [4] is A2780R Cisplatin resistant ovary cancer. Kind of test: In vitro cytotoxicity (CellTiter-Blue), A2780R. As to conditions: Homo sapiens; 72 hours of incubation. The format is cell-based. The method, then: as §1, §2
In test [5] the test system is JIM-T1 Trastuzumab-DM1 resistant mammal carcinoma. Kind of test: In vitro cytotoxicity (CellTiter-Blue), JIM-T1. As to conditions: Homo sapiens, JIMT-1; 72 hours of incubation. The format is cell-based. The method, then: as §1, §2
Test [6] has as its system MiaPaca2 pancreatic cancer. Kind of test: In vitro cytotoxicity (CellTiter-Blue), MiaPaca2. The test is classed as cell-based. As to conditions: Homo sapiens, MIA PaCa-2; 72 hours of incubation. The protocol:
as §1, §2

Test [7] has as its system HCT116 cells. Briefly: Apoptosis, caspase-3/7 activity (Apo-one assay). As to conditions: HCT116, 24 h treatment, various concentrations. The format is cell-based, human. The protocol: In order to clarify whether compound 1 brings about cell death by apoptosis, the intracellular enzymatic activity of caspases 3 and 7 was evaluated in cultures of HCT116 cells exposed for 24 hours to the action of compound 1.
Apoptosis is measured using the “Apo-one homogeneous caspase-3/7 assay” kit (Promega Co, WI, USA) following the manufacturer's recommendations. Briefly, the cells are seeded in 96 well culture plates at a rate of 50,000 cells per well in 100 μL of culture medium. After 24 hours of incubation, the medium is replaced by 100 μL of culture medium containing different concentrations of compound 1 or 0.1% of DMSO (negative control). After 24 hours of treatment, to each well is added 100 μL of reagent containing the caspase substrate and the buffer for the reaction. After 1 hour incubation, the fluorescence emitted by the cells is measured at 527 nm using a Victor type microplate reader (Perkin-Elmer, USA).

For `Cc1cc(N(C)c2ccc3c(c2)c2ccccc2n3C)c2ccccc2n1` [Compound 1, N,9-Dimethyl-N-(2-methylquinolin-4-yl)-9H-carbazol-3-amine], the “Number of vascular tubes” value in the test with HUVECs is “very important decrease in the number of vascular tubes”. The IC50 in test [1] is 0.277 ± 0.017 nM; with tubulin it was 1130 ± 160 nM; in [2], 0.07 ± 0.09 nM; in test [4], 0.54 ± 0.094 nM; in [5], 0.36 ± 0.02 nM; in [6], 0.47 ± 0.01 nM. Moreover, the “Effect on cell cycle” value in the test with HCT116 cells [3] is reported as “blocks cellular division in the G2/M phase”. Moreover, the “Induction of apoptosis (caspases 3 and 7 activity)” value with HCT116 cells [7] is on record as “strong induction of apoptosis”.
